Results published in patent US8906928B2, “Substituted pyrazolo-pyrrolo-pyridine-dione compounds” (ArQule, Inc., priority 2009, dated 2014).

Columns and labels:
Assay type in all cases: cell-based
NCI-H1299 = experiment: MTS assay (cell growth inhibition), NCI-H1299; conditions: NCI-H1299 cells, 72 hours incubation with test compound; concentration not given
Description: (§1) Cells were maintained at 37° C., 5% CO2 in DMEM media supplemented with 1% fetal bovine serum, penicillin/streptomycin and fungizone (Invitrogen). Cells were seeded into 96-well tissue culture plates at 3000 per well and cultured at 37° C. for 18 hours. Test compounds were dissolved and diluted to 300× in DMSO then diluted 1:40 in DMEM. Cells were incubated with test compounds for 72 hours followed by incubation with tetrazolium compound (3-(4,5-dimethylthiazol-2-yl)-5-(3-carboxymethoxyphenyl)-2-(4-sulfophenyl)-2H-tetrazolium, inner salt; MTS) and the electron coupling reagent, phenazine methosulfate (PMS) for 4 hours. […] The ability of compounds to inhibit cell growth in this assay is correlated with the reduction of dehydrogenase enzyme activity found in metabolically active cells. The measurement of the absorbance of the formazan was assessed using an ENVISION™ (Perkin Elmer) microplate reader at 492 nm. The calculated IC50 value is the concentration of the test compound that causes a 50% decrease in the absorbance.

PC-3 = experiment: MTS assay (cell growth inhibition), PC-3; conditions: PC-3 cells, 72 hours incubation with test compound; concentration not given
Description: as §1

Kato III = experiment: MTS assay (cell growth inhibition), Kato III; conditions: Kato III cells, 72 hours incubation with test compound; concentration not given
Description: as §1

DLD-1 = experiment: MTS assay (cell growth inhibition), DLD-1; conditions: DLD-1 cells, 72 hours incubation with test compound; concentration not given
Description: as §1

MDA-MB = experiment: MTS assay (cell growth inhibition), MDA-MB; conditions: MDA-MB cells, 72 hours incubation with test compound; concentration not given
Description: as §1

PACA-2 = experiment: MTS assay (cell growth inhibition), PACA-2; conditions: PACA-2 cells, 72 hours incubation with test compound; concentration not given
Description: as §1

Row | Structure (SMILES) | MTS CELL KILL DATA (% INHIBITION) NCI-H1299 (NCI-H1299) | MTS CELL KILL DATA (% INHIBITION) PC-3 (PC-3) | MTS CELL KILL DATA (% INHIBITION) Kato III (Kato III) | MTS CELL KILL DATA (% INHIBITION) DLD-1 (DLD-1) | MTS CELL KILL DATA (% INHIBITION) MDA-MB (MDA-MB) | MTS CELL KILL DATA (% INHIBITION) PACA-2 (PACA-2)
1 | CN(C)c1cccc(CN2C(=O)c3cnc4[nH]ncc4c3C2=O)c1 [Example 23] | C (C = <50% INHIBITION) | C (C = <50% INHIBITION) | C (C = <50% INHIBITION) | C (C = <50% INHIBITION) | C (C = <50% INHIBITION) | C (C = <50% INHIBITION)
2 | O=C1c2cnc3[nH]ncc3c2C(=O)N1Cc1cccc(Br)c1 [Example 104, 7-(3-bromobenzyl)pyrazolo[3,4-b]pyrrolo[3,4-d]pyridine-6,8(3H ,7H)-dione] | A (A = 80-100% INHIBITION) | A (A = 80-100% INHIBITION) | A (A = 80-100% INHIBITION) | A (A = 80-100% INHIBITION) | A (A = 80-100% INHIBITION) | A (A = 80-100% INHIBITION)
3 | C[C@@H](CN1C(=O)c2cnc3[nH]ncc3c2C1=O)c1ccccc1 [Example 82, 7-[(2R)-2-phenylpropyl]pyrazolo[3,4-b]pyrrolo[3,4-d]pyridine-6,8(3H,7H)-dione] | C (C = <50% INHIBITION) | A (A = 80-100% INHIBITION) | C (C = <50% INHIBITION) | C (C = <50% INHIBITION) | A (A = 80-100% INHIBITION) | C (C = <50% INHIBITION)
4 | O=C1c2cnc3[nH]ncc3c2C(=O)N1Cc1ccc(Cl)c(C(F)(F)F)c1 [Example 136, 7-[4-chloro-3-(trifluoromethyl)benzyl]pyrazolo[3,4-b]pyrrolo[3,4-d]pyridine-6,8(3H,7H)-dione] | C (C = <50% INHIBITION) | C (C = <50% INHIBITION) | C (C = <50% INHIBITION) | C (C = <50% INHIBITION) | C (C = <50% INHIBITION) | C (C = <50% INHIBITION)
5 | CCCC(CCC)CN1C(=O)c2cnc3[nH]ncc3c2C1=O [Example 63, 7-(2-propylpentyl)pyrazolo[3,4-b]pyrrolo[3,4-d]pyridine-6,8(3H,7H)-dione] | C (C = <50% INHIBITION) | A (A = 80-100% INHIBITION) | C (C = <50% INHIBITION) | C (C = <50% INHIBITION) | A (A = 80-100% INHIBITION) | A (A = 80-100% INHIBITION)
6 | O=C1c2cnc3[nH]ncc3c2C(=O)N1CC1CCC1 [Example 76, 7-(cyclobutylmethyl)pyrazolo[3,4-b]pyrrolo[3,4-d]pyridine-6,8(3H,7H)-dione] | C (C = <50% INHIBITION) | C (C = <50% INHIBITION) | C (C = <50% INHIBITION) | C (C = <50% INHIBITION) | C (C = <50% INHIBITION) | C (C = <50% INHIBITION)
7 | O=C1c2cnc3[nH]ncc3c2C(=O)N1CCc1ccncc1 [Example 36, 7-(2-pyridin-4-ylethyl)pyrazolo[3,4-b]pyrrolo[3,4-d]pyridine-6,8(3H,7H)-dione] | C (C = <50% INHIBITION) | A (A = 80-100% INHIBITION) | C (C = <50% INHIBITION) | C (C = <50% INHIBITION) | A (A = 80-100% INHIBITION) | B (B = 50-79% INHIBITION)
8 | CC(CN1C(=O)c2cnc3[nH]ncc3c2C1=O)c1ccccc1 (stereo not drawn) [Example 96, 7-(2-phenylpropyl)pyrazolo[3,4-b]pyrrolo[3,4-d]pyridine-6,8(3H,7H)-dione] | C (C = <50% INHIBITION) | C (C = <50% INHIBITION) | C (C = <50% INHIBITION) | C (C = <50% INHIBITION) | C (C = <50% INHIBITION) | C (C = <50% INHIBITION)
